According to ChEMBL document CHEMBL5346968, “Exploring Structural Determinants of Bias among D4 Subtype-Selective Dopamine Receptor Agonists” (J Med Chem, 2023):

target: T1, Alpha-2A adrenergic receptor (Homo sapiens, UniProt P08913); experiment: Displacement of [3H]RX821002 from adrenergic alpha 2A receptor (unknown origin) expressed in HEK293T cells assessed as inhibition constant by competition binding assay; format: cell-based; conditions: not given
T1 sequence (P08913 whole entry): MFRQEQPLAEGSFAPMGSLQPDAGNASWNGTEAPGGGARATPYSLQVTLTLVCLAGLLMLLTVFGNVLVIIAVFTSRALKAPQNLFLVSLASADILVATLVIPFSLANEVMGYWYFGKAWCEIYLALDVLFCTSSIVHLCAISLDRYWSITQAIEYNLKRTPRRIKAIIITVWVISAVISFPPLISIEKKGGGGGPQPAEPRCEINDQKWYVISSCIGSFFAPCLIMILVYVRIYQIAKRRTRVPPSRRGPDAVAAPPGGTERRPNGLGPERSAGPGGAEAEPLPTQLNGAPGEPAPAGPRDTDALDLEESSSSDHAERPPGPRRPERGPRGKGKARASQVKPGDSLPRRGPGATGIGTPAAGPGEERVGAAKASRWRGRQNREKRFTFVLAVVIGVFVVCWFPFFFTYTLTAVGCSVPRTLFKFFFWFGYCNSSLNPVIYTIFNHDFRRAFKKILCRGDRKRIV

Structure (SMILES)	Ki [nM]
COc1ccc(-c2ccccc2)c(CNC(=O)NCCCN2CCN(c3ccccc3OC)CC2)c1	200
COCCOCCOc1ccc(NC(=O)NCCCN2CCN(c3ccccc3OC)CC2)c(-c2ccccc2)c1	410

The next lines start with the values.

Ki [nM]	Structure (SMILES)
28	COc1ccccc1N1CCN(CCCNC(=O)Nc2ccccc2-c2ccccc2)CC1
120	COc1ccccc1N1CCN(CCCNC(=O)NCc2ccccc2-c2ccccc2)CC1

target: T2, D(4) dopamine receptor (Homo sapiens, UniProt P21917); experiment: Agonist activity at PKA-tagged human dopamine D4 receptor transfected in HEK293T cells expressing (EA)-beta-arrestin assessed as beta-arrestin recruitment incubated for 3 hrs by chemiluminescence based PathHunter assay; format: functional, cell-based; conditions: not given
T2 sequence (P21917 whole entry): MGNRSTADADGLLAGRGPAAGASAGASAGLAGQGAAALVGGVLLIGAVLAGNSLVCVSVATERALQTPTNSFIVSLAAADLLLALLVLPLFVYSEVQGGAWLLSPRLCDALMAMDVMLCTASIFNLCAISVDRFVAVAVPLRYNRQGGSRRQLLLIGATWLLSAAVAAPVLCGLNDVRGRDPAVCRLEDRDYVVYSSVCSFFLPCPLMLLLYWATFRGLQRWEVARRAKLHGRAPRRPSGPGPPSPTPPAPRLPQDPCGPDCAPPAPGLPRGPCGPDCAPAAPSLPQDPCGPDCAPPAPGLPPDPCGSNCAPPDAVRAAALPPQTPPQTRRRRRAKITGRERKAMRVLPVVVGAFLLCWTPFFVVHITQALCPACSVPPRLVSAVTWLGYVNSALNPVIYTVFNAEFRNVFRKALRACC

EC50 [nM]	Structure (SMILES)
350	COc1ccccc1N1CCN(CCCNC(=O)NN(Cc2ccc(F)cc2)c2ccccc2)CC1
470	COc1ccccc1N1CCN(CCCNC(=O)NN(Cc2ccccc2)c2ccc(F)cc2)CC1

target: D(3) dopamine receptor (Homo sapiens, UniProt P35462); experiment: Displacement of [3H]-N-methylspiperone from human dopmaine D3 receptor expressed in HEK293T cells assessed as inhibition constant by competition binding assay; format: cell-based; conditions: not given
Sequence (P35462 whole entry): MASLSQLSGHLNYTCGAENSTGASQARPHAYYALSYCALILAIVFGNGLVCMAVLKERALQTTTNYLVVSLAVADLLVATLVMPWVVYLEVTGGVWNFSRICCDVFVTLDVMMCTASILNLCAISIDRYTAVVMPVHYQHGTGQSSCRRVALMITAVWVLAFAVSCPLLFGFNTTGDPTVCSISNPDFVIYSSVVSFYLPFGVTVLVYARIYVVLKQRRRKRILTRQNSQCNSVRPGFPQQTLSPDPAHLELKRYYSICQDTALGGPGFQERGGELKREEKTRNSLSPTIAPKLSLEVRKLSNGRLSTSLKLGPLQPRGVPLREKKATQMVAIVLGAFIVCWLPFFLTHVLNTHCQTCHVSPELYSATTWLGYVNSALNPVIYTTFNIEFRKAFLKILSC

Structure (SMILES)	Ki [nM]
COc1ccc(-c2ccccc2)c(CNC(=O)NCCCN2CCN(c3ccccc3OC)CC2)c1	120
COCCOCCOc1ccc(NC(=O)NCCCN2CCN(c3ccccc3OC)CC2)c(-c2ccccc2)c1	86

Results, then the molecule that gave them:

Ki [nM]	Structure (SMILES)
57	COc1ccccc1N1CCN(CCCNC(=O)Nc2ccccc2-c2ccccc2)CC1
270	COc1ccccc1N1CCN(CCCNC(=O)NCc2ccccc2-c2ccccc2)CC1

tested on: not listed separately; experiment: Permeability of the compound across basal to apical membrane in human Caco-2 cells at 10 uM incubated for 4 hrs in the presence of valspodar by HPLC(UV) analysis; format: ADME, cell-based; conditions: caco-2, 4 h

permeability [%]	Structure (SMILES)
18.3	COc1ccccc1N1CCN(CCCNC(=O)Nc2ccccc2-c2ccccc2)CC1
10.5	COc1ccccc1N1CCN(CCCNC(=O)NCc2ccccc2-c2ccccc2)CC1

target: 5-hydroxytryptamine receptor 2A (Homo sapiens, UniProt P28223); experiment: Displacement of [3H]ketanserin from 5-HT2A receptor (unknown origin) expressed in HEK293T cells assessed as inhibition constant by competition binding assay; format: cell-based; conditions: not given
Sequence (P28223 whole entry): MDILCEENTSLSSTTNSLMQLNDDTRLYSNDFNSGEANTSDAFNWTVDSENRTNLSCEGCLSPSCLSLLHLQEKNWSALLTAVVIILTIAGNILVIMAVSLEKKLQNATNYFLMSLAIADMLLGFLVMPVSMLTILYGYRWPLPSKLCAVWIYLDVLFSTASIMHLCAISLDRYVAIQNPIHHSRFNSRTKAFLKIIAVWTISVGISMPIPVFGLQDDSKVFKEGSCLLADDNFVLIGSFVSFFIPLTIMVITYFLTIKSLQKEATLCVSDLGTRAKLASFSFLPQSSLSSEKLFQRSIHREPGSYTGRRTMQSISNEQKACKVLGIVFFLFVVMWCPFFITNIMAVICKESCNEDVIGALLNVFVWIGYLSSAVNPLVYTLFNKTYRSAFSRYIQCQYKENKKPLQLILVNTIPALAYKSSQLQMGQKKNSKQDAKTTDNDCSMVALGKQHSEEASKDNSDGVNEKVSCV

Structure (SMILES)	Ki [nM]
COc1ccc(-c2ccccc2)c(CNC(=O)NCCCN2CCN(c3ccccc3OC)CC2)c1	120
COCCOCCOc1ccc(NC(=O)NCCCN2CCN(c3ccccc3OC)CC2)c(-c2ccccc2)c1	1500

Other lines, results leading:

Ki [nM]	Structure (SMILES)
960	COc1ccccc1N1CCN(CCCNC(=O)Nc2ccccc2-c2ccccc2)CC1
140	COc1ccccc1N1CCN(CCCNC(=O)NCc2ccccc2-c2ccccc2)CC1

target: T3, D(2) dopamine receptor (Homo sapiens, UniProt P14416); experiment: Displacement of [3H]-N-methylspiperone from human dopmaine D2L receptor expressed in CHO cell membrane assessed as inhibition constant by competition binding assay; format: cell membranes; conditions: not given
T3 sequence (P14416 whole entry): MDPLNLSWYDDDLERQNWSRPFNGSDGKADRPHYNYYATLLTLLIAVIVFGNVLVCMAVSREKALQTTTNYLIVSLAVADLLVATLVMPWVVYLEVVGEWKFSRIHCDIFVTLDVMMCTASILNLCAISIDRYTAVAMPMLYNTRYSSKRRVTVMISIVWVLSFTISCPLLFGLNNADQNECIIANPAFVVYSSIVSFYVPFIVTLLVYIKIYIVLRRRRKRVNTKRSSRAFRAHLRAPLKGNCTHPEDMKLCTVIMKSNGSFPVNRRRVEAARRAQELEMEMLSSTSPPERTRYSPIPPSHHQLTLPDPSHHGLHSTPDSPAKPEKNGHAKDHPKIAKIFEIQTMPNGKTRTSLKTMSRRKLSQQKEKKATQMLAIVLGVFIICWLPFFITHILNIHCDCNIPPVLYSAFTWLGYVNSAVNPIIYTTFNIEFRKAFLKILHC

Structure (SMILES)	Ki [nM]
COc1ccc(-c2ccccc2)c(CNC(=O)NCCCN2CCN(c3ccccc3OC)CC2)c1	130
COCCOCCOc1ccc(NC(=O)NCCCN2CCN(c3ccccc3OC)CC2)c(-c2ccccc2)c1	130

Now from value to molecule:

Ki [nM]	Structure (SMILES)
210	COc1ccccc1N1CCN(CCCNC(=O)Nc2ccccc2-c2ccccc2)CC1
190	COc1ccccc1N1CCN(CCCNC(=O)NCc2ccccc2-c2ccccc2)CC1

target: D(1A) dopamine receptor (Homo sapiens, UniProt P21728); experiment: Displacement of [3H]SCH23390 from human dopamine D1 receptor expressed in HEK293T cells assessed as inhibition constant by competition binding assay; format: cell-based; conditions: not given
Sequence (P21728 whole entry): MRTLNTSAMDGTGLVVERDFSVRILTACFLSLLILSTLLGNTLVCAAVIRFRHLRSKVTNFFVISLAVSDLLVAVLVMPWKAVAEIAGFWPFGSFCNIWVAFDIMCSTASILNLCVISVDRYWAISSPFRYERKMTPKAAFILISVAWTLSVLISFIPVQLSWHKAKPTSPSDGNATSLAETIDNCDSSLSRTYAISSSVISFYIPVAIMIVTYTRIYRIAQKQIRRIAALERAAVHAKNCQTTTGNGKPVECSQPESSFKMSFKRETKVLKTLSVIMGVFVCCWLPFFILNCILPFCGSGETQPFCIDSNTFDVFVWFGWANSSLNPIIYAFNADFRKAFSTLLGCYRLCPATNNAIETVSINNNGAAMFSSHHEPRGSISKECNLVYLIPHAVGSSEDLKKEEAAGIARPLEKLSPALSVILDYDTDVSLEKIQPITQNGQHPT

Structure (SMILES)	Ki [nM]
COc1ccc(-c2ccccc2)c(CNC(=O)NCCCN2CCN(c3ccccc3OC)CC2)c1	280
COCCOCCOc1ccc(NC(=O)NCCCN2CCN(c3ccccc3OC)CC2)c(-c2ccccc2)c1	22

Continued, values first:

Ki [nM]	Structure (SMILES)
730	COc1ccccc1N1CCN(CCCNC(=O)Nc2ccccc2-c2ccccc2)CC1
480	COc1ccccc1N1CCN(CCCNC(=O)NCc2ccccc2-c2ccccc2)CC1

tested on: not listed separately; experiment: Metabolic stability in pooled rat liver microsomes assessed as parent compound remaining at 40 uM measured after 60 mins in the presence of NADPH by HPLC(UV) analysis; format: ADME, Microsome; conditions: read-out: Stability

remaining at 1 h, 40 µM [%]	Structure (SMILES)
57	COc1ccccc1N1CCN(CCCNC(=O)Nc2ccccc2-c2ccccc2)CC1
56	COc1ccccc1N1CCN(CCCNC(=O)NCc2ccccc2-c2ccccc2)CC1

tested on: not listed separately; experiment: Drug metabolism in pooled rat liver microsomes assessed as O-demethylation mediated metabolite formation at 40 uM measured upto 60 mins in the presence of NADPH by HPLC(UV) analysis; format: ADME, Microsome; conditions: 1 h

Drug metabolism	Structure (SMILES)
Metabolite_Detected	COc1ccccc1N1CCN(CCCNC(=O)Nc2ccccc2-c2ccccc2)CC1
Metabolite_Detected	COc1ccccc1N1CCN(CCCNC(=O)NCc2ccccc2-c2ccccc2)CC1

target: T2, D(4) dopamine receptor; experiment: Agonist activity at human dopamine D4 receptor transfected in HEK293T cells co-transfected with Galpha-qi assessed as activation of GPCR-mediated receptor signaling incubated for 90 mins by IP-one HTRF assay; format: functional, cell-based; conditions: not given

EC50 [nM]	Structure (SMILES)
1.8	COc1ccccc1N1CCN(CCCNC(=O)NN(Cc2ccc(F)cc2)c2ccccc2)CC1
41	COc1ccccc1N1CCN(CCCNC(=O)NN(Cc2ccccc2)c2ccc(F)cc2)CC1

target: T4, 5-hydroxytryptamine receptor 1A (Homo sapiens, UniProt P08908); experiment: Displacement of [3H][…] from 5-HT1A receptor (unknown origin) expressed in HEK293T cells assessed as inhibition constant by competition binding assay; format: cell-based; conditions: not given
T4 sequence (P08908 whole entry): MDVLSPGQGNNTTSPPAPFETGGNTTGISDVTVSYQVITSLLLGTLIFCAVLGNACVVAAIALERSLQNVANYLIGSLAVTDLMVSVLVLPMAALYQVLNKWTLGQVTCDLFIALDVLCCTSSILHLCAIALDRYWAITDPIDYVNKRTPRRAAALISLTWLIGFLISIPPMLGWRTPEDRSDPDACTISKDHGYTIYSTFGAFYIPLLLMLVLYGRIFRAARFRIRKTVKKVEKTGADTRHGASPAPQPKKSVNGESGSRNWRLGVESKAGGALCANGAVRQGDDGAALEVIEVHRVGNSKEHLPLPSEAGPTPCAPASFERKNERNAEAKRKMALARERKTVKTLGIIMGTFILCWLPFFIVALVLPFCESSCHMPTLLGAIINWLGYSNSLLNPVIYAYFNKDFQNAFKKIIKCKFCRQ

Structure (SMILES)	Ki [nM]
COc1ccc(-c2ccccc2)c(CNC(=O)NCCCN2CCN(c3ccccc3OC)CC2)c1	27
COCCOCCOc1ccc(NC(=O)NCCCN2CCN(c3ccccc3OC)CC2)c(-c2ccccc2)c1	220

Further lines, results first:

Ki [nM]	Structure (SMILES)
25	COc1ccccc1N1CCN(CCCNC(=O)Nc2ccccc2-c2ccccc2)CC1
62	COc1ccccc1N1CCN(CCCNC(=O)NCc2ccccc2-c2ccccc2)CC1

tested on: not listed separately; experiment: Retention time of the compound by HPLC(UV) method; format: physicochemical; conditions: not given

Retention_time [min]	Structure (SMILES)
3.91	COc1ccccc1N1CCN(CCCNC(=O)Nc2ccccc2-c2ccccc2)CC1
4.09	COc1ccccc1N1CCN(CCCNC(=O)NCc2ccccc2-c2ccccc2)CC1

target: T3, D(2) dopamine receptor; experiment: Displacement of [3H]-N-methylspiperone from human dopmaine D2S receptor expressed in CHO cell membrane assessed as inhibition constant by competition binding assay; format: cell membranes; conditions: not given

Structure (SMILES)	Ki [nM]
COc1ccc(-c2ccccc2)c(CNC(=O)NCCCN2CCN(c3ccccc3OC)CC2)c1	78
COCCOCCOc1ccc(NC(=O)NCCCN2CCN(c3ccccc3OC)CC2)c(-c2ccccc2)c1	74

More lines, now with the values ahead:

Ki [nM]	Structure (SMILES)
100	COc1ccccc1N1CCN(CCCNC(=O)Nc2ccccc2-c2ccccc2)CC1
120	COc1ccccc1N1CCN(CCCNC(=O)NCc2ccccc2-c2ccccc2)CC1

target: T5, Alpha-1A adrenergic receptor (Homo sapiens, UniProt P35348); experiment: Displacement of [3H]prazosin from adrenergic alpha 1A receptor (unknown origin) expressed in HEK293T cells assessed as inhibition constant by competition binding assay; format: cell-based; conditions: not given
T5 sequence (P35348 whole entry): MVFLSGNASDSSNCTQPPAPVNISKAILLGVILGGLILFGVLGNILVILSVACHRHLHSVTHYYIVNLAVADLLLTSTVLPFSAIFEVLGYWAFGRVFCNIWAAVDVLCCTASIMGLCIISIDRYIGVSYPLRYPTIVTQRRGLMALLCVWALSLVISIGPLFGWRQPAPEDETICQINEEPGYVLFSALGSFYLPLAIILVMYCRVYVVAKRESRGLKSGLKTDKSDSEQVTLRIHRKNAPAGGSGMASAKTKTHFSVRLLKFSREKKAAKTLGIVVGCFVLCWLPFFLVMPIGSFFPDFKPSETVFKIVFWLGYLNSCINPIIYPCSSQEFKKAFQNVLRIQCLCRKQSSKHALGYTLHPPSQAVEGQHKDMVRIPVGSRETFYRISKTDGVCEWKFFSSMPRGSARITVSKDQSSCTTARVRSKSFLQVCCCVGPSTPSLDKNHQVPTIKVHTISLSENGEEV

Structure (SMILES)	Ki [nM]
COc1ccc(-c2ccccc2)c(CNC(=O)NCCCN2CCN(c3ccccc3OC)CC2)c1	8.9
COCCOCCOc1ccc(NC(=O)NCCCN2CCN(c3ccccc3OC)CC2)c(-c2ccccc2)c1	38

More lines, now with the values ahead:

Ki [nM]	Structure (SMILES)
7.1	COc1ccccc1N1CCN(CCCNC(=O)Nc2ccccc2-c2ccccc2)CC1
11	COc1ccccc1N1CCN(CCCNC(=O)NCc2ccccc2-c2ccccc2)CC1

tested on: not listed separately; experiment: Drug metabolism in pooled rat liver microsomes assessed as hydroxylation mediated metabolite formation at 40 uM measured upto 60 mins in the presence of NADPH by HPLC(UV) analysis; format: ADME, Microsome; conditions: 1 h

Drug metabolism	Structure (SMILES)
Metabolite_Detected	COc1ccccc1N1CCN(CCCNC(=O)Nc2ccccc2-c2ccccc2)CC1
Metabolite_Detected	COc1ccccc1N1CCN(CCCNC(=O)NCc2ccccc2-c2ccccc2)CC1

target: D(1B) dopamine receptor (Homo sapiens, UniProt P21918); experiment: Displacement of [3H]SCH23390 from human dopamine D5 receptor expressed in HEK293T cells assessed as inhibition constant by competition binding assay; format: cell-based; conditions: not given
Sequence (P21918 whole entry): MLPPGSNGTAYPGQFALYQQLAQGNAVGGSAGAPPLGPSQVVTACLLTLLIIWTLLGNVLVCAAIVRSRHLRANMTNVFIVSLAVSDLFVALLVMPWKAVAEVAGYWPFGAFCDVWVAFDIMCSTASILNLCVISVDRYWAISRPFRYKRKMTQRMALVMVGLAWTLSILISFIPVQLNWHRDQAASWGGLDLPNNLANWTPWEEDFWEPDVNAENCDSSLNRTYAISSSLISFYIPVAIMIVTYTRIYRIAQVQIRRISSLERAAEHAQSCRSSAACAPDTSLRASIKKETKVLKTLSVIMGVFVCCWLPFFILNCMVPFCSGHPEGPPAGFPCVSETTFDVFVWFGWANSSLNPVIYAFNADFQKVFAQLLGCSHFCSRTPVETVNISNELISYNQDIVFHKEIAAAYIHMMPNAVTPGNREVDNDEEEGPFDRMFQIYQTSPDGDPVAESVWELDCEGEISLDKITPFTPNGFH

Structure (SMILES)	Ki [nM]
COc1ccc(-c2ccccc2)c(CNC(=O)NCCCN2CCN(c3ccccc3OC)CC2)c1	3000
COCCOCCOc1ccc(NC(=O)NCCCN2CCN(c3ccccc3OC)CC2)c(-c2ccccc2)c1	3900

Further lines, results first:

Ki [nM]	Structure (SMILES)
4500	COc1ccccc1N1CCN(CCCNC(=O)Nc2ccccc2-c2ccccc2)CC1
3300	COc1ccccc1N1CCN(CCCNC(=O)NCc2ccccc2-c2ccccc2)CC1

target: T2, D(4) dopamine receptor; experiment: Agonist activity at PKA-tagged human dopamine D4 receptor transfected in HEK293T cells expressing (EA)-beta-arrestin and GRK2 assessed as beta-arrestin recruitment incubated for 3 hrs by chemiluminescence based PathHunter assay; format: functional, cell-based; conditions: not given

EC50 [nM]	Structure (SMILES)
42	COc1ccccc1N1CCN(CCCNC(=O)NN(Cc2ccc(F)cc2)c2ccccc2)CC1
410	COc1ccccc1N1CCN(CCCNC(=O)NN(Cc2ccccc2)c2ccc(F)cc2)CC1

tested on: not listed separately; experiment: Permeability of the compound across basal to apical membrane in human Caco-2 cells at 10 uM incubated for 4 hrs by HPLC(UV) analysis; format: ADME, cell-based; conditions: caco-2, 4 h

permeability [%]	Structure (SMILES)
22.2	COc1ccccc1N1CCN(CCCNC(=O)Nc2ccccc2-c2ccccc2)CC1
15.7	COc1ccccc1N1CCN(CCCNC(=O)NCc2ccccc2-c2ccccc2)CC1
